The record followed here is PubChem BioAssay (NCI).

Among the test systems are T-47D breast; SF-539 CNS; NCI-H522 lung; CAKI-1 renal; RXF 393 renal; BT-549 breast; HT29 colon; TK-10 renal; CCRF-CEM leukemia; UACC-257 melanoma.
Common to all, as to assay: DTP human tumour cell line panel, 48 h

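Five compound concentrations were applied to cells in 96-well plates for 48 hours; endpoints were derived by simple linear interpolation of the resulting dose-response curve. The concentration for full growth arrest is given as TGI.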

As usually defined, the TGI is the concentration at which net growth stops. The low end stands for more potent growth arrest, the high end for less potent growth arrest. Take `CN(C)Cc1cc(N=Nc2ccc(Cl)c(Cl)c2)ccc1O`: the TGI in the assay on T-47D breast stood at 23.2 µM; in the assay on SF-539 CNS, 38.5 µM; in the assay with NCI-H522 lung, 16.2 µM; in the assay with CAKI-1 renal it was 25.4 µM; in the assay with RXF 393 renal, 10.7 µM; with BT-549 breast, 27 µM. Moreover, the TGI was 20.4 µM in the assay with HT29 colon, 22.9 µM in the assay with TK-10 renal, 20 µM in the assay with CCRF-CEM leukemia and 30.5 µM in the assay on UACC-257 melanoma.
As for `COC(=O)C(Cc1ccccc1)NC(=O)CNC(=O)CSc1nnc(COc2ccc(Cl)cc2)n1-c1ccccc1` (stereo not given), the total growth inhibition concentration (TGI) in the assay on T-47D breast worked out at 51.4 µM; in the assay with SF-539 CNS it was 34.3 µM; with NCI-H522 lung it was 5.45 µM; with CAKI-1 renal, 25.3 µM; with RXF 393 renal, 33.1 µM; in the assay on BT-549 breast, 35.6 µM. Also, the total growth inhibition concentration (TGI) in the assay on HT29 colon came out at 35.3 µM; in the assay with TK-10 renal, 27.7 µM; in the assay on CCRF-CEM leukemia it was 7.42 µM; in the assay with UACC-257 melanoma, 28.8 µM.
On to `COc1ccc2c(c1)CC[C@@H]1[C@@H]2CC[C@]2(C)/C(=N/OCCN3CCCCC3)CC[C@@H]12`, for which the concentration for total growth inhibition (TGI) with T-47D breast amounted to 19.2 µM; in the assay with SF-539 CNS, 7.64 µM; in the assay on NCI-H522 lung, 18.9 µM; in the assay with CAKI-1 renal, 4.17 µM; in the assay on RXF 393 renal it was 8.17 µM; in the assay on BT-549 breast, 28.7 µM. In addition, the TGI amounted to 3.67 µM with HT29 colon, 14.4 µM in the assay with TK-10 renal, 10.4 µM in the assay with CCRF-CEM leukemia and 5.34 µM in the assay with UACC-257 melanoma.
As for `COc1cc(C2c3cc4c(cc3OC(N3CCOCC3)C2C)OCO4)cc(OC)c1O` (stereo not given), the total growth inhibition concentration (TGI) in the assay with T-47D breast is over 100 µM; in the assay on SF-539 CNS, 22 µM; in the assay on NCI-H522 lung it was over 20.2 µM; in the assay with CAKI-1 renal it was 26.1 µM; in the assay on RXF 393 renal, 85.4 µM; with BT-549 breast it was 60.6 µM. Also, the TGI is 27.7 µM in the assay on HT29 colon, 70.6 µM with TK-10 renal, over 100 µM with CCRF-CEM leukemia and over 100 µM with UACC-257 melanoma.
As for `CC(=O)Oc1ccc2c(c1)CC[C@@H]1C2[C@@H](O[N+](=O)[O-])C[C@@]2(C)C1CC[C@@H]2O` (stereo not given in full), the TGI in the assay on T-47D breast is over 100 µM; in the assay on SF-539 CNS, 72.6 µM; in the assay with NCI-H522 lung, over 86.7 µM; in the assay with CAKI-1 renal it was over 100 µM; in the assay on RXF 393 renal, over 100 µM; with BT-549 breast it was over 100 µM. Besides, the total growth inhibition concentration (TGI) with HT29 colon was over 76.6 µM; in the assay with TK-10 renal, over 100 µM; in the assay on CCRF-CEM leukemia, over 83.2 µM; with UACC-257 melanoma, over 100 µM.
On to `Cn1c2ccccc2n2c3nc4ccccc4nc3c(C#N)c12`, for which the TGI was over 100 µM with T-47D breast; over 100 µM in the assay on SF-539 CNS; over 96.6 µM with NCI-H522 lung; over 100 µM in the assay with CAKI-1 renal; over 100 µM in the assay with RXF 393 renal; over 100 µM with BT-549 breast. Moreover, the total growth inhibition concentration (TGI) with HT29 colon, with TK-10 renal, in the assay with CCRF-CEM leukemia and in the assay with UACC-257 melanoma was over 100 µM in each case.
As for `CCOC(=O)/C=C(/C(=O)OCC)n1cc(C)c(=O)n(Cc2cnnn2CCCCOC(C)=O)c1=O`, the TGI is 71.1 µM in the assay on T-47D breast; 32.9 µM in the assay with SF-539 CNS; 14.2 µM in the assay with NCI-H522 lung; 21.4 µM in the assay on CAKI-1 renal; over 100 µM in the assay on RXF 393 renal; 24.3 µM in the assay with BT-549 breast. Also, the TGI is 34.3 µM in the assay with HT29 colon, 26.7 µM in the assay on TK-10 renal, 4.57 µM in the assay with CCRF-CEM leukemia and over 100 µM in the assay with UACC-257 melanoma.
Regarding `O=[N+]([O-])C(=C(NCc1ccccc1)NCc1ccccc1)C(Cl)=C(Cl)Cl`, the total growth inhibition concentration (TGI) with T-47D breast was 92.9 µM; in the assay with SF-539 CNS, over 100 µM; with NCI-H522 lung it was 79.1 µM; in the assay with CAKI-1 renal, 55.6 µM; in the assay with RXF 393 renal, 98.4 µM; with BT-549 breast it was over 100 µM. For the same molecule, the total growth inhibition concentration (TGI) was over 100 µM in the assay on HT29 colon, over 100 µM with TK-10 renal, 50.7 µM in the assay with CCRF-CEM leukemia and 82.4 µM with UACC-257 melanoma.
With `CC1CC[C@]2(C(=O)O)CCC3(C)C(=C2[C@H]1C)C=CC1[C@@]2(C)CC[C@H](O)C(C)(C)C2CC[C@]13C` (stereo not given in full), the TGI in the assay on T-47D breast is 58.9 µM; in the assay on SF-539 CNS, 50.9 µM; in the assay on NCI-H522 lung it was over 100 µM; in the assay on CAKI-1 renal, 84.1 µM; in the assay on RXF 393 renal it was 29 µM; in the assay on BT-549 breast, over 100 µM. Further, the TGI in the assay with HT29 colon, in the assay on TK-10 renal, in the assay with CCRF-CEM leukemia and in the assay with UACC-257 melanoma was over 100 µM each time.
In the case of `O=C(CCCC(=O)N1CC(CCl)c2ccc([N+](=O)[O-])cc21)N1CC(CCl)c2ccc([N+](=O)[O-])cc21` (stereo not given), the total growth inhibition concentration (TGI) in the assay on T-47D breast, in the assay with SF-539 CNS, with NCI-H522 lung, with CAKI-1 renal, in the assay with RXF 393 renal and with BT-549 breast was over 100 µM each time. Besides, the TGI in the assay with HT29 colon, in the assay on TK-10 renal, with CCRF-CEM leukemia and in the assay on UACC-257 melanoma was over 100 µM each time.
As for `CN(C)c1ccc(/C=N/NC2=N/C(=C\c3ccco3)C(=O)N2)cc1`, the TGI in the assay with T-47D breast, in the assay with SF-539 CNS, in the assay on NCI-H522 lung, in the assay with CAKI-1 renal, with RXF 393 renal and in the assay with BT-549 breast was over 100 µM in each case. Besides, the TGI in the assay on HT29 colon, with TK-10 renal, in the assay with CCRF-CEM leukemia and in the assay with UACC-257 melanoma was over 100 µM throughout.
With `COC(=O)c1c(O)ccc2c1c1c(n2C)C(=O)c2ccccc2C1=O`, the TGI in the assay on T-47D breast is 13.1 µM; in the assay on SF-539 CNS, 65.1 µM; with NCI-H522 lung it was over 100 µM; with CAKI-1 renal, 92.5 µM; with RXF 393 renal, 42 µM; with BT-549 breast it was 45.8 µM. For the same molecule, the concentration for total growth inhibition (TGI) is over 100 µM with HT29 colon, 86.4 µM in the assay on TK-10 renal, 51.9 µM with CCRF-CEM leukemia and over 100 µM with UACC-257 melanoma.
As for `CCn1c2c(c3c(C(=O)OC)c(O)ccc31)C(=O)c1ccccc1C2=O`, the TGI in the assay with T-47D breast amounted to 33 µM; with SF-539 CNS, 36 µM; in the assay on NCI-H522 lung, 23.8 µM; with CAKI-1 renal it was 94.6 µM; in the assay with RXF 393 renal, 52.6 µM; in the assay on BT-549 breast, 39.5 µM. Also, the concentration for total growth inhibition (TGI) in the assay with HT29 colon was 36.5 µM; in the assay with TK-10 renal, over 100 µM; in the assay on CCRF-CEM leukemia, 43.6 µM; with UACC-257 melanoma it was over 100 µM.
